The nature of the series: Particle size of valsartan by laser light scattering (Malvern Mastersizer MS 2000, suspension in vegetable oil). It counts as physicochemical. As to conditions: for average particle size: Malvern Mastersizer MS 2000 software; for % of particles in the range of 0.02-100 μm: range 0.02-100 μm; for size that 50% of particles were larger than (D50): volume diameter; for % of particles in the range of 0.02-50 μm: range 0.02-50 μm. An excerpt: The term “particle size” as used herein refers to the volume diameter of valsartan particles, as determined by laser light scattering using a Malvern-Mastersizer Apparatus MS 2000. D50 means that 50% of particles (V/V) have a higher volume diameter than the indicated value. The term “valsartan particle” means a particle that contains valsartan or, preferably, a particle that essentially or completely consists of valsartan. The particles to be subjected to the particle size measurement are first suspended in vegetable oil (i.e. sunflower oil) and then subjected to a size determination in a Malvern Mastersizer MS 2000 instrument. Usually, 100-800 mg of substance are dispersed in 5-8 ml of vegetable oil. No solubilizers or surfactants are used. According to manufacturer's information, the Malvern Mastersizers allow for a measurement of particle size distributions in the range of 20 nm to 2000 μm, with a precision of better than 0.5%. Particle sizes are determined by measuring the angular distribution of laser light scattered by a homogeneous suspension of particles. The size distribution is determined from the light scattering data using the theory of light scattering developed by Gustav Mie. The following examples illustrate the invention and are not intended to restrict the scope of the invention in any way. In the following examples, the water content was determined as loss on drying on a Mettler Toledo HR73 halogen moisture analyzer. The particle size was determined in a Malvern Mastersizer MS 2000, using a suspension of valsartan in vegetable oil (sunflower oil of Oljarica Kranj).

With `CCCCC(=O)N(Cc1ccc(-c2ccccc2-c2nnn[nH]2)cc1)[C@H](C(=O)O)C(C)C` [valsartan (C), N-(1-oxopentyl)-N-{4-[2-(1H-tetrazole-5-yl)phenyl]-benzyl}-L-valine], the “size that 10% of particles were larger than” value stood at 136.2 μm; the “size that 10% of particles were smaller than” value stood at 8.2 μm; the average particle size worked out at 65 μm; the “Particle size distribution, Volume % in range 0.01-2 μm” value was 1.4 Volume %. Further, the “% of particles in the range of 0.02-100 μm” value is listed as 78.5%; the “Particle size distribution, Volume % in range 2-5 μm” value is 4.8 Volume %; the “Particle size distribution, Volume % in range 5-10 μm” value is 5.7 Volume %; the “Particle size distribution, Volume % in range 10-20 μm” value is given as 9.4 Volume %. For the same molecule, the “Particle size distribution, Volume % in range 20-50 μm” value is listed as 25.9 Volume %; the “Particle size distribution, Volume % in range 50-100 μm” value is 31.3 Volume %; the “Particle size distribution, Volume % in range 100-150 μm” value worked out at 14.1 Volume %; the “Particle size distribution, Volume % in range 150-800 μm” value was determined as 7.3 Volume %. Also, the “size that 50% of particles were larger than (D50)” value is 53.4 μm. For the same molecule, where the note is “range 0.02-56 μm as printed”, the “% of particles in the range of 0.02-56 μm” value came out at 47.2%.

For the molecule `CCCCC(=O)N(Cc1ccc(-c2ccccc2-c2nnn[nH]2)cc1)[C@H](C(=O)O)C(C)C` [valsartan (B), N-(1-oxopentyl)-N-{4-[2-(1H-tetrazole-5-yl)phenyl]-benzyl}-L-valine], the “size that 10% of particles were larger than” value is on record as 460.8 μm; the “size that 10% of particles were smaller than” value is 34.7 μm; the average particle size worked out at 219 μm; the “Particle size distribution, Volume % in range 0.01-2 μm” value was 0.7 Volume %. The “% of particles in the range of 0.02-50 μm” value is reported as 15.0%; the “% of particles in the range of 0.02-100 μm” value was 30.0%; the “Particle size distribution, Volume % in range 2-5 μm” value was 1.2 Volume %; the “Particle size distribution, Volume % in range 5-10 μm” value is recorded as 1.0 Volume %. Also, the “Particle size distribution, Volume % in range 10-20 μm” value came to 2.6 Volume %; the “Particle size distribution, Volume % in range 20-50 μm” value turned out to be 9.5 Volume %; the “Particle size distribution, Volume % in range 50-100 μm” value worked out at 15.0 Volume %; the “Particle size distribution, Volume % in range 100-150 μm” value was 13.1 Volume %. In addition, the “Particle size distribution, Volume % in range 150-800 μm” value was 56.4 Volume % and the “size that 50% of particles were larger than (D50)” value is recorded as 179.1 μm.

As to `CCCCC(=O)N(Cc1ccc(-c2ccccc2-c2nnn[nH]2)cc1)[C@H](C(=O)O)C(C)C` [valsartan (A), N-(1-oxopentyl)-N-{4-[2-(1H-tetrazole-5-yl)phenyl]-benzyl}-L-valine], the “size that 10% of particles were larger than” value is given as 304.3 μm; the “size that 10% of particles were smaller than” value came to 10.3 μm; the average particle size came to 123 μm; the “Particle size distribution, Volume % in range 0.01-2 μm” value worked out at 0.9 Volume %. Also, the “% of particles in the range of 0.02-50 μm” value worked out at 38.1%; the “% of particles in the range of 0.02-100 μm” value worked out at 58.1%; the “Particle size distribution, Volume % in range 2-5 μm” value is on record as 3.3 Volume %; the “Particle size distribution, Volume % in range 5-10 μm” value came out at 5.5 Volume %. Further, the “Particle size distribution, Volume % in range 10-20 μm” value was determined as 9.3 Volume %; the “Particle size distribution, Volume % in range 20-50 μm” value is listed as 19.1 Volume %; the “Particle size distribution, Volume % in range 50-100 μm” value was 20.0 Volume %; the “Particle size distribution, Volume % in range 100-150 μm” value is recorded as 12.4 Volume %. Besides, the “Particle size distribution, Volume % in range 150-800 μm” value is recorded as 29.4 Volume % and the “size that 50% of particles were larger than (D50)” value worked out at 76.6 μm.
